Measurements taken from patent US20050214759A1, “Enzymatic redox labelling of nucleic acids” (priority 2001, published 2005).

Columns and labels:
[1] = target: T1, T7 RNA polymerase (Escherichia phage T7, UniProt P00573); assay: Incorporation of Fc-UTP into RNA in the course of transcription; type: biochemical
T1 construct: purchased USB
Protocol: Circular plasmid pT7Mta which contains the promoter for T7 RNA polymerase followed by the gene for aptamer C40 and a T7 terminator sequence was used for transcription. T7 RNA polymerase tends to produce short abortive RNA transcripts when modified nucleotides are incorporated into the first 12 nucleotides of RNA.
A typical transcription mixture (10 μL) contained 40 mM tris-HCl (pH 8.0), 15 mM MgCl2, 5 mM DTT, 0.05 mg/mL BSA, 1 UOL Rnasin, 0.4 mM NTPs, 10 ug/mL pT7Mta template, and 10U/uL T7 RNA polymerase. In some reaction mixtures, UTP was partially or fully substituted with […] in such a way that the total concentration of UTP and Fc-UTP was still 0.4 mM. Reaction mixtures were incubated at 37° C. for 2 h. Reactions were stopped by addition of 10 μL of gel loading buffer (98% formamide, 10 mM EDTA (pH 8.0), 0.025% bromophenol blue and 0.025% xylene cyanole PF) and heated at 95° C. for 2 min. RNA fragments were separated by 10% PAGE/8 M urea. The gel was stained by SYBR Green II (Sigma) according to manufacturers procedure, and visualised on a Fluorimager (Bio-Rad).

[2] = Cyclic voltammetry of Fc-NTP; type: physicochemical; conditions: vs. Ag/AgCl; 20 mM tris-acetate pH 7.4, 100 mM KCl, 1 mM MgCl2; scan rate 20 mV/s
Excerpt: Fc-dUTP and Fc-UTP have characteristic absorption spectra which correspond to a superposition of spectra for the modified nucleotide and ferrocene carboxamide constituents. They have a strong absorption in the UV region and a seal, broad peak characteristics of ferrocene near 440 nm. Cyclic voltammetry of Fc-dUTP yields a symmetric peak with E1/2=398 mV vs. Ag/AgCl, consistent with reversible redox reaction of the Fc moiety. The redox potential of Fc-dUTP is 90 mV greater than the potential of ferrocenecarboxylate (310 mV vs. Ag/AgCl) measured in the same buffer (data now shown), reflecting the change of pentadienyl ring substituent (—COO to —CONHR) to one which is more electron-withdrawing. The observed potential is close to that reported for a ferrocene carboxamide moiety attached to the 5′-end of DNA oligonucleotides in aqueous buffer (406-425 mV vs. Ag/AgCl).
Cyclic voltammograms were recorded with an electrochemical analyser (BAS). The three-electrode system consisted of a glassy carbon working electrode, a Ag/AgCl (saturated KCl) reference electrode (Eref=206 mV) and a platinum counter electrode. Experiments were performed in a 5 ml electrochemical cell containing 0.8 mM Fc-NTP in 20 mM tris-acetate (pH 7.4), 100 mM KCl, and 1 mM MgCl2 at a scan rate of 20 mV/s. The scan range was from −0.1 to +0.8 V (vs. Ag/AgCl). (See FIG. 2).

T1 sequence (P00573 whole entry): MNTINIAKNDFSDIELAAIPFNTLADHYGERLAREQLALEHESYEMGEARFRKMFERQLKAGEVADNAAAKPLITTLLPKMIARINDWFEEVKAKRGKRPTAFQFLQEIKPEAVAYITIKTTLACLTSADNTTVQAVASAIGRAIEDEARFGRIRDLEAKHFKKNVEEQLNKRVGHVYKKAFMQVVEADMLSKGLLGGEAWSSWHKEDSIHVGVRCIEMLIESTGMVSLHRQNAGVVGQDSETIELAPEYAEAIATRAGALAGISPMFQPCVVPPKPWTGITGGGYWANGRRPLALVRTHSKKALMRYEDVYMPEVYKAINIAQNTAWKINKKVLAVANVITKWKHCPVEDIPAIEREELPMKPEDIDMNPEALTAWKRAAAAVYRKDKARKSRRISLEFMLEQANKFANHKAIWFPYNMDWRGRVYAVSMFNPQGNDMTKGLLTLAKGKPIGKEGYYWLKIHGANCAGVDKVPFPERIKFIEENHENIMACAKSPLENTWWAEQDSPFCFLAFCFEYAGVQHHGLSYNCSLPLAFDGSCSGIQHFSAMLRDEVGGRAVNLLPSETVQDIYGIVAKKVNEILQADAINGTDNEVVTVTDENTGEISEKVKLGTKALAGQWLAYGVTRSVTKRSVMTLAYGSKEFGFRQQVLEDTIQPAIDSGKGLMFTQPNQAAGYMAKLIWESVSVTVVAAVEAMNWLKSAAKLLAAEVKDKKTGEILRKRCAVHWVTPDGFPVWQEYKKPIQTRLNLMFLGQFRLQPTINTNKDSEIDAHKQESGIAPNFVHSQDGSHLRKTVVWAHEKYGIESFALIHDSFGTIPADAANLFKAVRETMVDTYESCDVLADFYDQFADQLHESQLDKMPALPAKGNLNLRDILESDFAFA

Row | Molecule | amount of RNA product formed ([1]; substitution of UTP by Fc-UTP, total 0.4 mM) | amount of RNA product formed ([1]; total absence of UTP (full substitution by Fc-UTP)) | E1/2 (redox potential) [2]
1 | O=C(NCC=Cc1cn([C@@H]2O[C@H](COP(=O)(O)OP(=O)(O)OP(=O)(O)O)[C@@H](O)[C@H]2O)c(=O)[nH]c1=O)[c-]1cccc1.[Fe+2].c1cc[cH-]c1 [Fc-UTP, 5-(3ferrocenecarboxamidopropenyl-1)-uridine-5′-triphosphate] | significant decrease in the amount of RNA product formed | synthesized a significant amount of RNA product | 
2 | ferrocenecarboxylate [reference compound] |  |  | 310 mV
